Several values for one entry are separate records, joined by “and”; a condition that tells them apart may be missing. Equal entries are not always repeated. Entries after “also recorded” stand apart in the source; their conditions may differ. Positions of bridges follow the written chain, without caps; N, C: chain ends. Non-standard residues stand in square brackets, D forms with d. Residues, ends and D or L forms follow the SMILES beside them. Hyp = O=C(O)[C@@H]1C[C@@H](O)CN1
Key:
[1] = test system: histamine-contracted, isolated Guinea pig tracheal segments
[2] = test system: primary cultures of cortex; format: cell-based, rat
cardiac myocytes = format: cell-based, rat
Kv1.3 = target: T1, Kv1.3 (Homo sapiens, UniProt P22001); settings: cited from earlier work
T1 construct: host or cells: oocytes
T1 sequence (P22001 whole entry): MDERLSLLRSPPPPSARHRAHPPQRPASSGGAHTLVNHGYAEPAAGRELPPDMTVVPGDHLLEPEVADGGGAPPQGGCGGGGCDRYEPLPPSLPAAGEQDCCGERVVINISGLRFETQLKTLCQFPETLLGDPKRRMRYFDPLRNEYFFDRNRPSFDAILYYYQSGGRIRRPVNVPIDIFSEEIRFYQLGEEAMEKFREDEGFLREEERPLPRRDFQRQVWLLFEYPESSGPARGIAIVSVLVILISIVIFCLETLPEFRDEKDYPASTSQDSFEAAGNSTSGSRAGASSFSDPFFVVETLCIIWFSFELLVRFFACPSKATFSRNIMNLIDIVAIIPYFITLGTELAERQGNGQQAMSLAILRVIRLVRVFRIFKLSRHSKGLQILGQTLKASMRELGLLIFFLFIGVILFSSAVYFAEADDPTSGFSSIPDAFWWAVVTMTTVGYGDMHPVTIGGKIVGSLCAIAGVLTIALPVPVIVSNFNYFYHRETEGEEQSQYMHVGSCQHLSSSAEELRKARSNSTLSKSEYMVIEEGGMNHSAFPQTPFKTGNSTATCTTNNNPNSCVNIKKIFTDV

[3] = test system: primary cultures of cortex
trachea = format: cell-based, rat
[4] = test system: primary cultures of ventricular myocytes
[5] = rat, in vivo, iv
[6] = test system: primary cultures of cortex; format: cell-based, rat; remark: listed apart in the source
[7] = test system: single tracheal, neuronal or myocyte cells; format: cell-based, rat
[8] = test system: primary cultures of cortical neurons; format: cell-based, rat
Kv1.4 = Kv1.4 (Homo sapiens, UniProt P22459); settings: cited from earlier work
Chain of Kv1.4 (P22459 whole entry): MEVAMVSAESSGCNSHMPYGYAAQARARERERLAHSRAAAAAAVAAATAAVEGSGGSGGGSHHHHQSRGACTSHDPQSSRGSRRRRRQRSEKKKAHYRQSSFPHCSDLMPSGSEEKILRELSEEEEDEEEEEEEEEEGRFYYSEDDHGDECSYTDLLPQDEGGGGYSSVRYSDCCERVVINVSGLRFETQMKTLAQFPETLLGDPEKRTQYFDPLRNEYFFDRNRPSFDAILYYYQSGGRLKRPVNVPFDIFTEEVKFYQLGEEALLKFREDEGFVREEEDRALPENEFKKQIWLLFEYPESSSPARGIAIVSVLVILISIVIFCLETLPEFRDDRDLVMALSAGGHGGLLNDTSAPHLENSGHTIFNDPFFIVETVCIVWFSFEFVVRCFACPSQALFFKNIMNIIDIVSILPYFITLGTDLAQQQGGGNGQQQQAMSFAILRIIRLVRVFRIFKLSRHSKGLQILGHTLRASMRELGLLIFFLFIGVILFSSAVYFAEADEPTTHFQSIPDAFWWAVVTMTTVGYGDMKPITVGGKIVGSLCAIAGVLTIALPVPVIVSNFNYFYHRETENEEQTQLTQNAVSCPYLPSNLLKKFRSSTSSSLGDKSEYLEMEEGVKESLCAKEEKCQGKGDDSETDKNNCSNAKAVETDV

[9] = test system: primary cultures of cortex; format: cell-based, rat; remark: listed apart in the source
[10] = target: Shaker H4 potassium channel (Drosophila melanogaster, UniProt P08510); settings: cited from earlier work
Chain of Shaker H4 potassium channel (P08510 whole entry): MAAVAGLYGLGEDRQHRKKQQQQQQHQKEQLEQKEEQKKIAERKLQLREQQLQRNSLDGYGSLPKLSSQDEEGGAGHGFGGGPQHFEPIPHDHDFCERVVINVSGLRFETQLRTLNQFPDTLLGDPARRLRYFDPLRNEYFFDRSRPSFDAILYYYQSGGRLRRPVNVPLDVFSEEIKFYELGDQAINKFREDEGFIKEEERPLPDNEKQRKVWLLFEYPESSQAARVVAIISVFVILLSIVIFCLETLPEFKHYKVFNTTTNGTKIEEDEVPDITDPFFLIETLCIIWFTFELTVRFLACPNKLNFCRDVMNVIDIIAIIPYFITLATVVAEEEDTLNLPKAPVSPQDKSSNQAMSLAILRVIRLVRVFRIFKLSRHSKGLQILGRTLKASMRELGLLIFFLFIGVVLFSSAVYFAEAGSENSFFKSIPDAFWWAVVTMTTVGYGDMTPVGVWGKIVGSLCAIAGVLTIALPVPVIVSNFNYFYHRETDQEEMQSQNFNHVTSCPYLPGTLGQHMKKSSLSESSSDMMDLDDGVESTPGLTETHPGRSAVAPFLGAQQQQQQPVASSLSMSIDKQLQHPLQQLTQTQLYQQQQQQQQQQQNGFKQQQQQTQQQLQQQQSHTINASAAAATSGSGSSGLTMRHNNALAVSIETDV

[11] = test system: primary cortical cultures
F425G Shaker mutation = F425G Shaker mutation (Drosophila melanogaster, UniProt P08510, F425G); settings: cited from earlier work
Chain of F425G Shaker mutation (P08510 whole entry F425G): as the sequence (P08510 whole entry) above, with F425G counted along it

[12] = test system: cardiac ventricular myocytes; format: cell-based, rat
[13] = test system: primary cultures of ventricular myocytes; format: cell-based, rat
Kv1.1 = target: T2, Kv1.1 (Homo sapiens, UniProt Q09470); settings: cited from earlier work
T2 construct: host or cells: oocytes
T2 sequence (Q09470 whole entry): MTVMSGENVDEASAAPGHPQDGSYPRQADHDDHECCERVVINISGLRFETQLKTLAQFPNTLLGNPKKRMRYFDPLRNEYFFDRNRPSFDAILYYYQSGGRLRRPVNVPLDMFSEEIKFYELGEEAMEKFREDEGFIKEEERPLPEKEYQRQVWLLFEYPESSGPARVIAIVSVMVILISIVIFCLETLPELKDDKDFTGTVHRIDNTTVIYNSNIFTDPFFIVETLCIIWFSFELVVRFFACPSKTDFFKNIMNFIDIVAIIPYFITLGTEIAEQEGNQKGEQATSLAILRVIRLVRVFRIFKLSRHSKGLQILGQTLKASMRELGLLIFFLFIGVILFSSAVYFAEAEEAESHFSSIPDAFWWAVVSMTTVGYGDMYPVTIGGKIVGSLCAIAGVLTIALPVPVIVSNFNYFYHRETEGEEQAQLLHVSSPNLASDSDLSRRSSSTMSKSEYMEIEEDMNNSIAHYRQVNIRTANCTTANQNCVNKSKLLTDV

cortex = format: cell-based, rat

For `CC[C@H](C)[C@@H]1NC(=O)[C@H](CCCNC(=N)N)NC(=O)[C@@H](N)CSSC[C@@H]2NC(=O)[C@@H]3CSSC[C@@H](C(=O)N[C@H](C(=O)O)C(C)C)NC(=O)[C@H](CCCCN)NC(=O)[C@H](CC(N)=O)NC(=O)[C@H](Cc4ccccc4)NC(=O)[C@H](CCCNC(=N)N)NC(=O)[C@H](CC(N)=O)NC(=O)[C@H](CSSC[C@H](NC(=O)[C@H](CCCCN)NC(=O)[C@H](CCC(N)=O)NC(=O)[C@H](CC(N)=O)NC(=O)[C@@H]4C[C@@H](O)CN4C1=O)C(=O)N[C@@H](Cc1ccccc1)C(=O)N[C@@H](CCC(N)=O)C(=O)N[C@@H](Cc1c[nH]cn1)C(=O)N[C@@H](CC(C)C)C(=O)N[C@@H](CC(=O)O)C(=O)N[C@@H](CC(=O)O)C(=O)N3)NC(=O)[C@H](CCCCN)NC(=O)[C@H](CCCNC(=N)N)NC(=O)[C@H](CO)NC2=O` [κ-PVIIA, kappa-conotoxin PVIIA] (H-CRI[Hyp]NQKCFQHLDDCCSRKCNRFNKCV-OH; disulfide 1-16, 8-20, 15-26), the “relaxation of histamine-contracted tracheal segments” value [1] was “able to relax”, the “change in intracellular K+ concentration (PBFI)” value [2] was “reduction” and the “current corrected for cell capacitance” value (cardiac myocytes) was 4.6±0.4 pA/pf. For the same molecule, the current evoked (cardiac myocytes) was 87.7±5.9 pA, the induction of currents (cardiac myocytes) was “induces glibenclamide-sensitive currents” and the “effects on Kv1.3” value (Kv1.3) was “no effects”. The EC50 [3] was 0.0008 pM, the “protection against hypoxia (intracellular calcium, fluo-3)” value (trachea) was “able to provide protection against hypoxia” and the “degree of glutamate-induced excitotoxicity” value (cortical cells) was “effectively reduces the degree of glutamate-induced excitotoxicity in a dose-dependant manner”. For the same molecule, the “protection against delayed cytotoxic effects of glutamate” value (cortical cells) was “very effective protection”, the EC50 [4] was 0.0009 pM and the “effect on blood pressure” value [5] was “no effect”. For the same molecule, the “effect on heart rate” value [5] was “no effect”, the “current corrected for cell capacitance” value [6] was 2.4±0.7 pA/pf and the current evoked [6] was 26.2±6.2 pA. For the same molecule, the “reversal potential of the evoked current” value [6] was ~−20 mV, the “protection against hypoxia-induced changes in membrane potential (current-clamp)” value [7] was “A similar result” and the “change in intracellular calcium (Fluo-3 fluorescence)” value [8] was −2.15±0.95% and −8.8±3.9%. The “effect on intracellular calcium (Fluo-3)” value [8] was “significant reduction”, the “activity on Kv1.4” value (Kv1.4) was “no detectable activity” and the “initial glutamate-induced depolarization (current-clamp)” value [9] was “prevents the initial glutamate-induced depolarization”. For the same molecule, the “block / inhibition of the Shaker channel” value [10] was “block”, the “protease activity (cytotoxicity)” value [11] was “no detectable protease activity” and the “effect of F425G Shaker mutation on toxin affinity / sensitivity” value (F425G Shaker mutation) was “abolishes”. The “protection against hypoxia-induced depolarization” value [12] was “prevented any hypoxia-induced changes in membrane potential; also recorded: strong protective effect; also recorded: confers protection”, the “protection against hypoxia (intracellular calcium, fluo-3)” value [13] was “able to provide protection against hypoxia” and the “activity on Kv1.1” value (Kv1.1) was “no detectable activity; also recorded: no effects”. The “protection against hypoxia (intracellular calcium, fluo-3)” value (cortex) was “able to provide protection against hypoxia”.

From patent US20060040312A1 (priority 1999, published 2006)
